Data set [1] addresses T1, Cytochrome P450 1B1 (Homo sapiens, UniProt Q16678).
T1 sequence (Q16678 whole entry): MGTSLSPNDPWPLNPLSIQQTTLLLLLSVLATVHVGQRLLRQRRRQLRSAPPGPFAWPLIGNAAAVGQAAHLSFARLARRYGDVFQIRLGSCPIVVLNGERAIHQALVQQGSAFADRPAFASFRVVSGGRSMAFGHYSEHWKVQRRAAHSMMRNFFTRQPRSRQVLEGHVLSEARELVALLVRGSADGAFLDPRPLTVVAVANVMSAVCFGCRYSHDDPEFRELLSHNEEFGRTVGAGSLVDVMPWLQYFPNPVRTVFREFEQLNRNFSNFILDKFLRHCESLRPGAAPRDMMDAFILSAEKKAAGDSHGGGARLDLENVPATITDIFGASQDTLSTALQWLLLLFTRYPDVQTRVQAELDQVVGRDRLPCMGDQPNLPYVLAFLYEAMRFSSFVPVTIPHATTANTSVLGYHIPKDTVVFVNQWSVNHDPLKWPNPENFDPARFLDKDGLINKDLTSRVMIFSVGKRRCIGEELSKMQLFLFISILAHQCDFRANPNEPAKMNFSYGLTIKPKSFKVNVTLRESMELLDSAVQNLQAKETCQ
In words: Inhibition of human recombinant CYP1B1 using 7-ethoxyresorufin as substrate incubated under dark condition for 30 mins in presence of NADPH by EROD fluorescence assay. It is filed as ADME.

Data set [2] has as its target T2, CYP1B1 (Homo sapiens, UniProt Q16678).
T2 sequence (Q16678 whole entry): T1 sequence (Q16678 whole entry)
In words: Inhibition of human recombinant CYP1B1 using 7-ethoxyresorufin as substrate at 100 uM incubated under dark condition for 30 mins in presence of NADPH by EROD fluorescence assay relative to control. In kind it is ADME. The conditions noted are these: recombinant CYP1B1, probe 7-ethoxyresorufin.

The target of data set [3] is T3, Cytochrome P450 1A1 (Homo sapiens, UniProt P04798).
T3 sequence (P04798 whole entry): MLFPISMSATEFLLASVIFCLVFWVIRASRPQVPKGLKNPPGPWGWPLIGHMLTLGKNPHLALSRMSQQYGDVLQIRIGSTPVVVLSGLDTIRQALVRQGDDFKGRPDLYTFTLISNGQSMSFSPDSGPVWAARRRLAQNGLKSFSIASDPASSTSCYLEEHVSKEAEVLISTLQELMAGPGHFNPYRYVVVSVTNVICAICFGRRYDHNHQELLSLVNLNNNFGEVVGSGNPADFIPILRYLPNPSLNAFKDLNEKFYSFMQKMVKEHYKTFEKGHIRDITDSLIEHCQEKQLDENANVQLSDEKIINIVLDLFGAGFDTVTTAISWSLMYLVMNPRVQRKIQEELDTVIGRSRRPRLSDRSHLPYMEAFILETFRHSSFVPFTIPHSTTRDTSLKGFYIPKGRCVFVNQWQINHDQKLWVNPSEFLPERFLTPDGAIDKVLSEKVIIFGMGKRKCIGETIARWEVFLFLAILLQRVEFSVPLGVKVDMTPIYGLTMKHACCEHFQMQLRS
In words: Inhibition of human recombinant CYP1A1 using 7-ethoxyresorufin as substrate incubated under dark condition for 15 mins in presence of NADPH by EROD fluorescence assay. In kind it is ADME.

Data set [4] deals with T4, Cytochrome P450 1A2 (Homo sapiens, UniProt P05177).
T4 sequence (P05177 whole entry): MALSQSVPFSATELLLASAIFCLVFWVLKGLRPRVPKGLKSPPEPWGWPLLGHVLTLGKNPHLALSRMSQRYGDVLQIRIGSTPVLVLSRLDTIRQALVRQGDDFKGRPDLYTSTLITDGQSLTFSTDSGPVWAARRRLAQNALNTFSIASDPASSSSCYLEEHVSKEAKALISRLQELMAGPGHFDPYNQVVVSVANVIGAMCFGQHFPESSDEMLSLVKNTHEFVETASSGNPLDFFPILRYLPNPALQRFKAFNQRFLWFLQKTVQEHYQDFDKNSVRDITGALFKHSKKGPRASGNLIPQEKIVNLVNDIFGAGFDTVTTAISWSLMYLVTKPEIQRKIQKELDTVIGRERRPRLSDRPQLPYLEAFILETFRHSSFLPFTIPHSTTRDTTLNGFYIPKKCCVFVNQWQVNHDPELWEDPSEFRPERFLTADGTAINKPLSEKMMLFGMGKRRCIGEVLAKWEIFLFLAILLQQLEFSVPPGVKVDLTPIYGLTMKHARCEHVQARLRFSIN
In words: Inhibition of human recombinant CYP1A2 using 7-ethoxyresorufin as substrate incubated under dark condition for 45 mins in presence of NADPH by EROD fluorescence assay. In kind it is ADME.

For data set [5], the species on record is Homo sapiens. In words: Selectivity index, ratio of IC50 for human recombinant CYP1A1 to IC50 for human recombinant CYP1B1 using 7-ethoxyresorufin as substrate.
The species entered for data set [6] is Homo sapiens. In words: Selectivity index, ratio of IC50 for human recombinant CYP1A2 to IC50 for human recombinant CYP1B1 using 7-ethoxyresorufin as substrate.

The results in this text go back to ChEMBL document CHEMBL6182948 (J Med Chem, 2025).

Structures are written as SMILES. pIC50: −log10 of the molar value.

For `COc1ccc(NC(=O)c2nc(-c3ccccc3)cs2)c(OC)c1`, the pIC50 (in general, the negative decadic logarithm of the IC50, by convention in mol/L) in data set [1] is 7.60; in data set [3], 6.11; in data set [4] it was 6.36. In addition, the inhibition (as a rule, the drop in the measured response relative to a control, in per cent) at 0.5 h, 100 µM in data set [2] stood at 89.3%. For the same compound, the Ratio IC50 in data set [5] came to 31.1.

For `O=C(Nc1ccc(I)cc1)c1nc(-c2ccccc2)cs1`, the results for the pIC50 in data set [1], in data set [3] and in data set [4] were 9.40, 6.78 and 6.82, respectively. Further, the inhibition at 0.5 h, 100 µM in data set [2] was 100%. Moreover, the Ratio IC50 amounted to 410 in data set [5] and 377 in data set [6].

For the compound `O=C(Nc1cc(Cl)ccc1Cl)c1nc(-c2ccccc2)cs1`, the pIC50 in data set [1] was 8.00; in data set [3] it was 6.68; in data set [4] it was 7.09. For the same compound, in data set [2], the inhibition at 0.5 h, 100 µM was 96.2%. For the same compound, the Ratio IC50 in data set [5] came out at 20.5; in data set [6] it was 8.

Regarding `O=C(Nc1ccc(C(F)(F)F)cc1)c1nc(-c2ccccc2)cs1`, the pIC50 is 9.33 in data set [1], 6.35 in data set [3] and 6.35 in data set [4]. For the same compound, in data set [2], the inhibition at 0.5 h, 100 µM was found to be 99.5%. Moreover, the Ratio IC50 in data set [5] came out at 951; in data set [6], 952.

For `O=C(Nc1cccc(Cl)c1)c1nc(-c2ccccc2)cs1`, the inhibition at 0.5 h, 100 µM in data set [2] came out at 77.4%.

`COc1cc(NC(=O)c2nc(-c3ccccc3)cs2)cc(OC)c1`: the results for the pIC50 in data set [1], in data set [3] and in data set [4] were 8.33, 6.21 and 6.14, respectively. Moreover, the inhibition at 0.5 h, 100 µM in data set [2] turned out to be 87.4%. Moreover, the Ratio IC50 in data set [5] was found to be 134; in data set [6] it was 156.

Turning to `O=C(Nc1ccc(N2CCNCC2)cc1)c1nc(-c2ccccc2)cs1`, the inhibition at 0.5 h, 100 µM in data set [2] was determined as 8.7%.

`O=C(Nc1ccc(N2CCOCC2)cc1)c1nc(-c2ccccc2)cs1`: the inhibition at 0.5 h, 100 µM in data set [2] was 20.5%.

Take `COc1ccc(OC)c(NC(=O)c2nc(-c3ccccc3)cs2)c1`: the pIC50 was 7.66 in data set [1], 6.39 in data set [3] and 6.21 in data set [4]. The inhibition at 0.5 h, 100 µM in data set [2] is 91.2%. Further, the Ratio IC50 worked out at 18.4 in data set [5] and 27.8 in data set [6].

On to `O=C(Nc1ccc(F)cc1)c1nc(-c2ccccc2)cs1`, for which the pIC50 in data set [1] is 7.62; in data set [3], 6.55; in data set [4], 6.65. Further, the inhibition at 0.5 h, 100 µM in data set [2] stood at 86.7%. Moreover, the results for the Ratio IC50 in data set [5] and in data set [6] were 11.7 and 9.2, respectively.

Take `COc1ccc(NC(=O)c2nc(-c3ccccc3)cs2)cc1`: the negative-log IC50 (pIC50) in data set [1] was 7.95; in data set [3], 6.33; in data set [4], 6.05. For the same compound, in data set [2], the inhibition at 0.5 h, 100 µM was 95%. The Ratio IC50 in data set [5] turned out to be 42; in data set [6], 80.2.

In the case of `N#Cc1ccc(NC(=O)c2nc(-c3ccccc3)cs2)cc1`, the negative-log IC50 (pIC50) was 8.11 in data set [1], 6.06 in data set [3] and 6.25 in data set [4]. In addition, the inhibition at 0.5 h, 100 µM in data set [2] worked out at 99.3%. Moreover, the figures for the Ratio IC50 in data set [5] and in data set [6] were 113 and 73.4, respectively.

`O=C(Nc1ccc(-c2ccccc2)cc1)c1nc(-c2ccccc2)cs1`: the inhibition at 0.5 h, 100 µM in data set [2] came out at 21.2%.

In the case of `O=C(Nc1ccc(OC(F)(F)F)cc1)c1nc(-c2ccccc2)cs1`, the pIC50 in data set [1] is 8.13; in data set [3], 6.67; in data set [4], 6.33. Moreover, the inhibition at 0.5 h, 100 µM in data set [2] stood at 92.2%. The Ratio IC50 in data set [5] was 28.6; in data set [6], 63.4.

Regarding `O=C(Nc1ccc(-n2ccnc2)cc1)c1nc(-c2ccccc2)cs1`, the pIC50 is 8.83 in data set [1], 7.97 in data set [3] and 8.62 in data set [4]. Moreover, the inhibition at 0.5 h, 100 µM in data set [2] turned out to be 102%. Also, the Ratio IC50 in data set [5] stood at 7.2; in data set [6], 1.6.

In the case of `O=C(Nc1ccccc1F)c1nc(-c2ccccc2)cs1`, the inhibition at 0.5 h, 100 µM in data set [2] came to 69.6%.

On to `NC(=O)c1ccc(NC(=O)c2nc(-c3ccccc3)cs2)cc1`, for which the inhibition at 0.5 h, 100 µM in data set [2] came to 54.6%.

For the compound `Cc1ccccc1-c1csc(C(=O)Nc2cc(Cl)cc(Cl)c2)n1`, the pIC50 in data set [1] is 7.21; in data set [3] it was 6.58; in data set [4], 6.22. In addition, the Ratio IC50 in data set [5] was 4.3; in data set [6], 9.7.

For `CC(=O)Nc1ccc(-c2csc(C(=O)Nc3cc(Cl)cc(Cl)c3)n2)cc1`, the negative logarithm of the IC50 (pIC50) in data set [1] was 6.62; in data set [3], 6.78; in data set [4], less than 4.00. Further, the figures for the Ratio IC50 in data set [5] and in data set [6] were 0.7 and greater than 413, respectively.

Regarding `COc1ccc(-c2csc(C(=O)Nc3cc(Cl)cc(Cl)c3)n2)cc1`, the results for the pIC50 in data set [1], in data set [3] and in data set [4] were 6.66, less than 4.00 and 4.77, respectively. The Ratio IC50 in data set [5] is greater than 454; in data set [6], 77.6.

`N#Cc1cccc(-c2csc(C(=O)Nc3ccc(C(F)(F)F)cc3)n2)c1`: the pIC50 in data set [1] was 8.53; in data set [3] it was 7.67; in data set [4], less than 4.00. The Ratio IC50 is 7.3 in data set [5] and greater than 34100 in data set [6].

As for `Cc1sc(C(=O)Nc2ccc(OC(F)F)cc2)nc1-c1cccc(F)c1`, the pIC50 in data set [1] is 8.52; in data set [3], 6.73; in data set [4], 5.57. The results for the Ratio IC50 in data set [5] and in data set [6] were 61.9 and 889, respectively.

Regarding `O=C(Nc1cc(Cl)cc(Cl)c1)c1nc(-c2ccc(-c3ccccc3)cc2)cs1`, the negative-log IC50 (pIC50) in data set [1] is 5.71; in data set [3] it was 5.03; in data set [4] it was 4.90. In addition, the Ratio IC50 in data set [5] worked out at 4.8; in data set [6], 6.5.

Take `COc1cc(NC(=O)c2nc(-c3cccc(F)c3)cs2)cc(OC)c1`: the pIC50 in data set [1] was 8.14; in data set [3] it was 6.32; in data set [4], 5.14. Further, the Ratio IC50 in data set [5] was 65.1; in data set [6] it was 993.

In the case of `O=C(Nc1ccc(OC(F)F)cc1)c1nc(-c2ccc(F)cc2)cs1`, the pIC50 was 9.33 in data set [1], 7.24 in data set [3] and 6.09 in data set [4]. Moreover, the figures for the Ratio IC50 in data set [5] and in data set [6] were 122 and 1730, respectively.

On to `O=C(Nc1ccc(OC(F)F)cc1)c1nc(-c2cccc(Cl)c2)cs1`, for which the values for the pIC50 in data set [1], in data set [3] and in data set [4] were 8.98, 7.25 and 5.33, respectively. The Ratio IC50 in data set [5] is 53.5; in data set [6] it was 4500.

For the compound `O=C(Nc1cc(Cl)cc(Cl)c1)c1nc(-c2ccc(O)cc2)cs1`, the negative-log IC50 (pIC50) in data set [1] was 7.38; in data set [3] it was 6.12; in data set [4] it was 4.40. For the same compound, the Ratio IC50 in data set [5] worked out at 18.2; in data set [6], 967.

As for `CC(C)c1ccc(-c2csc(C(=O)Nc3cc(Cl)cc(Cl)c3)n2)cc1`, the pIC50 was 6.56 in data set [1], 6.34 in data set [3] and 5.02 in data set [4]. In addition, the results for the Ratio IC50 in data set [5] and in data set [6] were 1.7 and 34.5, respectively.

As for `COc1cc(NC(=O)c2nc(-c3ccccc3)cs2)cc(OC)c1OC`, the inhibition at 0.5 h, 100 µM in data set [2] came to 62.8%.

Regarding `O=C(Nc1ccc(C(F)(F)F)cc1)c1nc(-c2ccc(Cl)cc2)cs1`, the negative-log IC50 (pIC50) in data set [1] is 9.31; in data set [3], 7.16; in data set [4], 6.61. The Ratio IC50 is 142 in data set [5] and 510 in data set [6].
